Data: article PMC10165273, “Itch receptor MRGPRX4 interacts with the receptor activity–modifying proteins” (The Journal of Biological Chemistry, 2023)
Where two headings read alike, the source gives them in different places.

Target: T1, MRGPRX4 (Homo sapiens, UniProt Q96LA9)
T1 construct: expressed in transfected cells; host or cells: HEK293T
Test: IP1 accumulation HTRF assay, MRGPRX4
Type: cell-based
Settings: 2 h; for activation at 80 µM: log [agonist] (M) -4.09691; for activation at 16 µM: log [agonist] (M) -4.79588; for activation at 3.2 µM: log [agonist] (M) -5.49485; for activation at 0.64 µM: log [agonist] (M) -6.19382; for activation at 0.128 µM: log [agonist] (M) -6.89279; for activation at 0.0256 µM: log [agonist] (M) -7.59176
Description: HEK293T cells were transfected with 1 pg/cell of MRGPRX4 DNA, and the amount of DNA was kept constant at 2 pg/cell with pcDNA3.1(+) empty vector, unless otherwise specified. Twenty four hours after transfection, IP1 assay was performed as previously described ([51]). When applicable, cells were treated with 1 μM YM254890 (YM) or different concentrations of U73122 for 1 h prior to addition of agonist or buffer. After incubation for 2 h, HTRF reagents and IP1 calibration standards were added and incubated for 2 h in the dark at room temperature. Time-resolved fluorescence signals were read on the BioTek Synergy NEO-TRF Hybrid multi-mode reader (BioTek Instruments). All data were carried out in three independent experiments with three technical replicate each.
For characterization of the Tet-On Nluc-HT7-MRGPRX4-GFP10-1D4 construct, HEK293T cells were transfected as previously described with some modifications. Dox dose-response of NLuc-HT7-MRGPRX4-GFP10-1D4 DNA titration was assayed by transfecting HEK293T cells with either 1 or 2 pg/cell of NLuc-HT7-MRGPRX4-GFP10-1D4 construct. Receptor expression was induced 4 h after transfection with addition of different concentrations of dox for 20 h. For the RAMP DNA titration assay, cells were cotransfected with a constant amount of 1 pg/cell of NLuc-HT7-MRGPRX4-GFP10-1D4 DNA and 1, 0.75, 0.5, or 0 pg/cell of each HA-RAMP-OLLAS with the homogenous transfection method. Four hours after transfection, receptor expression was induced with addition of 1000 ng/ml dox. Twenty hours after induction, IP1 assay was performed.
Data reduction, standard calibration, and transformation of HTRF data were performed as previously described ([51]). Normalized IP1 values were calculated relative to the unstimulated mock-transfected cells (set to 0%) and fully stimulated MRGPRX4 (alone if applicable) (set to 100%).

[1] = SP-FLAG-Nluc-HT7-MRGX4_Tet-GFP10-1D4, read-out: normalized IP1 accumulation
[2] = SP-FLAG-Nluc-HT7-MRGX4_Tet-GFP10-1D4 no dox, read-out: normalized IP1 accumulation

T1 sequence (Q96LA9 whole entry): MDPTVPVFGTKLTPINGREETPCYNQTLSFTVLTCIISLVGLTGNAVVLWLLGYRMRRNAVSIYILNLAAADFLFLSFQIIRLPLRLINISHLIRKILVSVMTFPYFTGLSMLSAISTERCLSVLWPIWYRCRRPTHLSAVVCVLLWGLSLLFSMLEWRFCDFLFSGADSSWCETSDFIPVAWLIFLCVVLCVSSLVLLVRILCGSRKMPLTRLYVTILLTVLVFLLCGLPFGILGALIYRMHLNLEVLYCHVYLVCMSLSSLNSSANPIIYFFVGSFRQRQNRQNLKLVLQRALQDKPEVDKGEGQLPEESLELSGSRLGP

C[C@H](CCC(=O)O)[C@H]1CC[C@H]2[C@@H]3CC[C@@H]4C[C@H](O)CC[C@]4(C)[C@H]3C[C@H](O)[C@]12C [DCA, deoxycholic acid]
activation at 100 µM (HA-MRGX4-1D4, log [agonist] (M) -4, read-out: normalized IP1 accumulation): 53.9% | activation at 20 µM (HA-MRGX4-1D4, log [agonist] (M) -4.69897, read-out: normalized IP1 accumulation): 34.3% | activation at 4 µM (HA-MRGX4-1D4, log [agonist] (M) -5.39794, read-out: normalized IP1 accumulation): 19.4% | activation at 0.8 µM (HA-MRGX4-1D4, log [agonist] (M) -6.09691, read-out: normalized IP1 accumulation): 12.4% | activation at […] (HA-MRGX4-1D4, log [agonist] (M) -6.79588, read-out: normalized IP1 accumulation): 11.1% | activation at 0.032 µM (HA-MRGX4-1D4, log [agonist] (M) -7.49485, read-out: normalized IP1 accumulation): 11.4% | activation at 100 µM (MRGPRX4: 0.25pg/cell, log [DCA] (M) -4, Fig S1c, read-out: IP1 accumulation): 41.7% | activation at 20 µM (MRGPRX4: 0.25pg/cell, log [DCA] (M) -4.69897, Fig S1c, read-out: IP1 accumulation): 28.7% | activation at 4 µM (MRGPRX4: 0.25pg/cell, log [DCA] (M) -5.39794, Fig S1c, read-out: IP1 accumulation): 10.1% | activation at 100 µM (MRGPRX4: 0.5pg/cell, log [DCA] (M) -4, Fig S1c, read-out: IP1 accumulation): 53.6% | activation at 20 µM (MRGPRX4: 0.5pg/cell, log [DCA] (M) -4.69897, Fig S1c, read-out: IP1 accumulation): 33.8% | activation at 4 µM (MRGPRX4: 0.5pg/cell, log [DCA] (M) -5.39794, Fig S1c, read-out: IP1 accumulation): 14.2% | activation at 0.8 µM (MRGPRX4: 0.5pg/cell, log [DCA] (M) -6.09691, Fig S1c, read-out: IP1 accumulation): 7.76% | activation at […] (MRGPRX4: 0.5pg/cell, log [DCA] (M) -6.79588, Fig S1c, read-out: IP1 accumulation): 7.83% | activation at 0.032 µM (MRGPRX4: 0.5pg/cell, log [DCA] (M) -7.49485, Fig S1c, read-out: IP1 accumulation): 6.46% | activation at 100 µM (MRGPRX4: 1pg/cell, log [DCA] (M) -4, Fig S1c, read-out: IP1 accumulation): 62.8% | activation at 20 µM (MRGPRX4: 1pg/cell, log [DCA] (M) -4.69897, Fig S1c, read-out: IP1 accumulation): 42.9% | activation at 4 µM (MRGPRX4: 1pg/cell, log [DCA] (M) -5.39794, Fig S1c, read-out: IP1 accumulation): 19.8% | activation at 0.8 µM (MRGPRX4: 1pg/cell, log [DCA] (M) -6.09691, Fig S1c, read-out: IP1 accumulation): 13.1% | activation at […] (MRGPRX4: 1pg/cell, log [DCA] (M) -6.79588, Fig S1c, read-out: IP1 accumulation): 10.7% | activation at 0.032 µM (MRGPRX4: 1pg/cell, log [DCA] (M) -7.49485, Fig S1c, read-out: IP1 accumulation): 8.32% | activation at 100 µM (MRGPRX4: 2pg/cell, log [DCA] (M) -4, Fig S1c, read-out: IP1 accumulation): 79.9% | activation at 20 µM (MRGPRX4: 2pg/cell, log [DCA] (M) -4.69897, Fig S1c, read-out: IP1 accumulation): 51.7% | activation at 4 µM (MRGPRX4: 2pg/cell, log [DCA] (M) -5.39794, Fig S1c, read-out: IP1 accumulation): 26.6% | activation at 0.8 µM (MRGPRX4: 2pg/cell, log [DCA] (M) -6.09691, Fig S1c, read-out: IP1 accumulation): 15.7% | activation at […] (MRGPRX4: 2pg/cell, log [DCA] (M) -6.79588, Fig S1c, read-out: IP1 accumulation): 15.1% | activation at 0.032 µM (MRGPRX4: 2pg/cell, log [DCA] (M) -7.49485, Fig S1c, read-out: IP1 accumulation): 14.6% | activation at 100 µM (MRGPRX4: […], log [DCA] (M) -4, Fig S1c, read-out: IP1 accumulation): 38.8% | activation at 20 µM (MRGPRX4: […], log [DCA] (M) -4.69897, Fig S1c, read-out: IP1 accumulation): 21.2% | activation at 4 µM (MRGPRX4: […], log [DCA] (M) -5.39794, Fig S1c, read-out: IP1 accumulation): 7.81% | activation at 0.8 µM (MRGPRX4: […], log [DCA] (M) -6.09691, Fig S1c, read-out: IP1 accumulation): 3.51% | activation at 0.032 µM (MRGPRX4: […], log [DCA] (M) -7.49485, Fig S1c, read-out: IP1 accumulation): 3.48% | activation at 10 µM (MRGPRX4, DCA 10uM, Fig S1d): 28.4% | activation at 100 µM (MRGPRX4, DCA 100uM, Fig S1d, read-out: IP1 accumulation): 60.7% | activation at 100 µM (MRGPRX4 alone, log [DCA] (M) -4, Fig S3d-f, read-out: IP1 accumulation): 100% | activation at 20 µM (MRGPRX4 alone, log [DCA] (M) -4.69897, Fig S3d-f, read-out: IP1 accumulation): 66.8% | activation at 4 µM (MRGPRX4 alone, log [DCA] (M) -5.39794, Fig S3d-f, read-out: IP1 accumulation): 36.1% | activation at 0.8 µM (MRGPRX4 alone, log [DCA] (M) -6.09691, Fig S3d-f, read-out: IP1 accumulation): 26.3% | activation at […] (MRGPRX4 alone, log [DCA] (M) -6.79588, Fig S3d-f, read-out: IP1 accumulation): 23.7% | activation at 0.032 µM (MRGPRX4 alone, log [DCA] (M) -7.49485, Fig S3d-f, read-out: IP1 accumulation): 21.4% | activation at 30 µM (MRGX4 + DCA, U73122 30uM, Fig S1e): 8.48% | activation at 30 µM (MRGX4 + DCA, buffer, Fig S1e): 39.2% | activation at 100 µM (MRGX4 + DCA, 100uM, U73122 30uM, Fig S1e, read-out: IP1 accumulation): 16.7% | activation at 100 µM (MRGX4 + DCA, 100uM, buffer, Fig S1e, read-out: IP1 accumulation): 56.2% | activation at 80 µM [1]: 38.3% | activation at 16 µM [1]: 22.2% | activation at 3.2 µM [1]: 13% | activation at 0.64 µM [1]: 10.2% | activation at 0.128 µM [1]: 9.26% | activation at 0.0256 µM [1]: 9.64% | activation at 80 µM [2]: 9.13% | activation at 16 µM [2]: 7.51% | activation at 3.2 µM [2]: 9.25% | activation at 0.64 µM [2]: 7.7% | activation at 0.128 µM [2]: 7.77% | activation at 0.0256 µM [2]: 7.55% | activation at 100 µM (SP-Flag-MRGX4-1D4, log [agonist] (M) -4, read-out: normalized IP1 accumulation): 65.9% | activation at 20 µM (SP-Flag-MRGX4-1D4, log [agonist] (M) -4.69897, read-out: normalized IP1 accumulation): 34.9% | activation at 0.8 µM (SP-Flag-MRGX4-1D4, log [agonist] (M) -6.09691, read-out: normalized IP1 accumulation): 9.9% | activation at […] (SP-Flag-MRGX4-1D4, log [agonist] (M) -6.79588, read-out: normalized IP1 accumulation): 8.52% | activation at 0.032 µM (SP-Flag-MRGX4-1D4, log [agonist] (M) -7.49485, read-out: normalized IP1 accumulation): 6.84% | activation at 100 µM (SP-Flag-MRGX4-GFP10-1D4, log [agonist] (M) -4, read-out: normalized IP1 accumulation): 66.1% | activation at 20 µM (SP-Flag-MRGX4-GFP10-1D4, log [agonist] (M) -4.69897, read-out: normalized IP1 accumulation): 33.2% | activation at 4 µM (SP-Flag-MRGX4-GFP10-1D4, log [agonist] (M) -5.39794, read-out: normalized IP1 accumulation): 15.5% | activation at 0.8 µM (SP-Flag-MRGX4-GFP10-1D4, log [agonist] (M) -6.09691, read-out: normalized IP1 accumulation): 8.34% | activation at […] (SP-Flag-MRGX4-GFP10-1D4, log [agonist] (M) -6.79588, read-out: normalized IP1 accumulation): 7.34% | activation at 0.032 µM (SP-Flag-MRGX4-GFP10-1D4, log [agonist] (M) -7.49485, read-out: normalized IP1 accumulation): 7.17% | activation at 100 µM (log [agonist] (M) -4, MRGX4-transfected, individual replicates, read-out: IP1 accumulation, dose-response (Figure 1a)): 67.6% | activation at 11.111 µM (log [agonist] (M) -4.95424, MRGX4-transfected, individual replicates, read-out: IP1 accumulation, dose-response (Figure 1a)): 33.9% | activation at 1.2346 µM (log [agonist] (M) -5.90849, MRGX4-transfected, individual replicates, read-out: IP1 accumulation, dose-response (Figure 1a)): 14.9% | activation at 0.13717 µM (log [agonist] (M) -6.86273, MRGX4-transfected, individual replicates, read-out: IP1 accumulation, dose-response (Figure 1a)): 10.6%
